According to patent publication US20250353820A1, “ANTIVIRAL PYRAZOLOPYRIDINONE COMPOUNDS” (Novartis AG, priority 2019, published 2025):

Target: human HSV DNA polymerase UL30 (Human herpesvirus 1 (strain 17) (HHV-1) (Human herpes simplex virus 1), UniProt P04293)
Test: biochemical
Conditions: 625 pM HSV polymerase, 20 minutes at room temperature; read-out: HSV-polymerase Biochemical IC50

| Compound | IC50 [nM] |
| --- | --- |
| Cn1nc(C(=O)NCc2ccc(Cl)nc2)c2c1C(=O)N(CC1(S(=O)(=O)C(C)(C)CO)CC1)CC2 [Example 51, N-((6-Chloropyridin-3-yl)methyl)-6-((1-((1-hydroxy-2-methylpropan-2-yl)sulfonyl)cyclopropyl)methyl)-1-methyl-7-oxo-4,5,6,7-tetrahydro-1H-pyrazolo[3,4-c]pyridine-3-carboxamide] | 89 |
| Cn1nc(C(=O)NCc2ccc(C#N)cc2)c2c1C(=O)N(CC1(S(=O)(=O)C(C)(C)CO)CC1)CC2 [Example 52, N-(4-Cyanobenzyl)-6-((1-((1-hydroxy-2-methylpropan-2-yl)sulfonyl)cyclopropyl)methyl)-1-methyl-7-oxo-4,5,6,7-tetrahydro-1H-pyrazolo[3,4-c]pyridine-3-carboxamide] | 19 |
| Cn1nc(C(=O)NCc2ccc(F)cc2)c2c1C(=O)N(CC1(S(=O)(=O)C(C)(C)CO)CC1)CC2 [Example 53, N-(4-Fluorobenzyl)-6-((1-((1-hydroxy-2-methylpropan-2-yl)sulfonyl)cyclopropyl)methyl)-1-methyl-7-oxo-4,5,6,7-tetrahydro-1H-pyrazolo[3,4-c]pyridine-3-carboxamide] | 70 |
| C[C@H](NC(=O)c1nn(C)c2c1CCN(CC1(S(=O)(=O)C(C)(C)CO)CC1)C2=O)c1ccc(C#N)cc1 [Example 54, (S)-N-(1-(4-Cyanophenyl)ethyl)-6-((1-((1-hydroxy-2-methylpropan-2-yl)sulfonyl)cyclopropyl)methyl)-1-methyl-7-oxo-4,5,6,7-tetrahydro-1H-pyrazolo[3,4-c]pyridine-3-carboxamide] | 103 |
| C[C@@H](NC(=O)c1nn(C)c2c1CCN(CC1(S(=O)(=O)C(C)(C)CO)CC1)C2=O)c1ccc(C#N)cc1 [Example 55, (R)-N-(1-(4-Cyanophenyl)ethyl)-6-((1-((1-hydroxy-2-methylpropan-2-yl)sulfonyl)cyclopropyl)methyl)-1-methyl-7-oxo-4,5,6,7-tetrahydro-1H-pyrazolo[3,4-c]pyridine-3-carboxamide] | > 25000 |
| Cn1nc(C(=O)NCc2ccc(C#N)cc2)c2c1C(=O)N(CC1(S(=O)(=O)C(C)(C)COC(F)F)CC1)CC2 [Example 58, N-(4-Cyanobenzyl)-6-((1-((1-(difluoromethoxy)-2-methylpropan-2-yl)sulfonyl)cyclopropyl)methyl)-1-methyl-7-oxo-4,5,6,7-tetrahydro-1H-pyrazolo[3,4-c]pyridine-3-carboxamide] | 24 |
| Cn1nc(C(=O)NCc2ccc(C#N)cc2)c2c1C(=O)N(CC1(S(=O)(=O)C(C)(C)C#N)CC1)CC2 [Example 59, N-(4-Cyanobenzyl)-6-((1-((2-cyanopropan-2-yl)sulfonyl)cyclopropyl)methyl)-1-methyl-7-oxo-4,5,6,7-tetrahydro-1H-pyrazolo[3,4-c]pyridine-3-carboxamide] | 23 |
| Cn1nc(C(=O)NCc2ccc(C#N)cc2)c2c1C(=O)N(CC1(S(=O)(=O)C(C)(C)CN3CC(F)C3)CC1)CC2 [Example 60, N-(4-Cyanobenzyl)-6-((1-((1-(3-fluoroazetidin-1-yl)-2-methylpropan-2-yl)sulfonyl)cyclopropyl)methyl)-1-methyl-7-oxo-4,5,6,7-tetrahydro-1H-pyrazolo[3,4-c]pyridine-3-carboxamide] | 45 |
| Cn1nc(C(=O)NCc2ccc(C#N)cc2)c2c1C(=O)N(CC1(S(=O)(=O)C(C)(C)CN3CCOCC3)CC1)CC2 [Example 61, N-(4-Cyanobenzyl)-1-methyl-6-((1-((2-methyl-1-morpholinopropan-2-yl)sulfonyl)cyclopropyl)methyl)-7-oxo-4,5,6,7-tetrahydro-1H-pyrazolo[3,4-c]pyridine-3-carboxamide] | 75 |
| CO[C@@H]1CCN(CC(C)(C)S(=O)(=O)C2(CN3CCc4c(C(=O)NCc5ccc(C#N)cc5)nn(C)c4C3=O)CC2)C1 [Example 62, (R)-N-(4-cyanobenzyl)-6-((1-((1-(3-methoxypyrrolidin-1-yl)-2-methylpropan-2-yl)sulfonyl)cyclopropyl)methyl)-1-methyl-7-oxo-4,5,6,7-tetrahydro-1H-pyrazolo[3,4-c]pyridine-3-carboxamide] | 139 |
| Cn1nc(C(=O)NCc2ccc(C#N)cc2)c2c1C(=O)N(CC1(S(=O)(=O)C(C)(C)CN3CC4CC(C3)O4)CC1)CC2 [Example 63, 6-((1-((1-(6-Oxa-3-azabicyclo[3.1.1]heptan-3-yl)-2-methylpropan-2-yl)sulfonyl)cyclopropyl)methyl)-N-(4-cyanobenzyl)-1-methyl-7-oxo-4,5,6,7-tetrahydro-1H-pyrazolo[3,4-c]pyridine-3-carboxamide] | 100 |
| Cn1nc(C(=O)NCc2ccc(C#N)cc2)c2c1C(=O)N(CC1(S(=O)(=O)C(C)(C)CN3CC4CC3CO4)CC1)CC2 (centres unmarked) [Example 64, 6-((1-((1-(2-Oxa-5-azabicyclo[2.2.1]heptan-5-yl)-2-methylpropan-2-yl)sulfonyl)cyclopropyl)methyl)-N-(4-cyanobenzyl)-1-methyl-7-oxo-4,5,6,7-tetrahydro-1H-pyrazolo[3,4-c]pyridine-3-carboxamide] | 60 |
| Cn1nc(C(=O)NCc2ccc(C#N)cc2)c2c1C(=O)N(CC1(S(=O)(=O)C(C)(C)CN3CC(O)C3)CC1)CC2 [Example 65, N-(4-Cyanobenzyl)-6-((1-((1-(3-hydroxyazetidin-1-yl)-2-methylpropan-2-yl)sulfonyl)cyclopropyl)methyl)-1-methyl-7-oxo-4,5,6,7-tetrahydro-1H-pyrazolo[3,4-c]pyridine-3-carboxamide] | 52 |
| COC1CN(CC(C)(C)S(=O)(=O)C2(CN3CCc4c(C(=O)NCc5ccc(C#N)cc5)nn(C)c4C3=O)CC2)C1 [Example 66, N-(4-Cyanobenzyl)-6-((1-((1-(3-methoxyazetidin-1-yl)-2-methylpropan-2-yl)sulfonyl)cyclopropyl)methyl)-1-methyl-7-oxo-4,5,6,7-tetrahydro-1H-pyrazolo[3,4-c]pyridine-3-carboxamide] | 50 |
| Cn1nc(C(=O)NCc2ccc(C#N)cc2)c2c1C(=O)N(CC1(S(=O)(=O)C(C)(C)CN3CC4(COC4)C3)CC1)CC2 [Example 67, N-(4-Cyanobenzyl)-1-methyl-6-((1-((2-methyl-1-(2-oxa-6-azaspiro[3.3]heptan-6-yl)propan-2-yl)sulfonyl)cyclopropyl)methyl)-7-oxo-4,5,6,7-tetrahydro-1H-pyrazolo[3,4-c]pyridine-3-carboxamide] | 48 |
| Cn1nc(C(=O)NCc2ccc(C#N)cc2)c2c1C(=O)N(CC1(S(=O)(=O)C(C)(C)CN3CCC(O)C3)CC1)CC2 (centres unmarked) [Example 68, N-(4-Cyanobenzyl)-6-((1-((1-(3-hydroxypyrrolidin-1-yl)-2-methylpropan-2-yl)sulfonyl)cyclopropyl)methyl)-1-methyl-7-oxo-4,5,6,7-tetrahydro-1H-pyrazolo[3,4-c]pyridine-3-carboxamide] | 21 |
| Cn1nc(C(=O)NCc2ccc(C#N)cc2)c2c1C(=O)N(CC1(S(=O)(=O)C(C)(C)CNCCO)CC1)CC2 [Example 69, N-(4-Cyanobenzyl)-6-((1-((1-((2-hydroxyethyl)amino)-2-methylpropan-2-yl)sulfonyl)cyclopropyl)methyl)-1-methyl-7-oxo-4,5,6,7-tetrahydro-1H-pyrazolo[3,4-c]pyridine-3-carboxamide] | 40 |
